The nature of series [1]: Inner ear pharmacokinetics after transtympanic administration (perilymph, plasma; LC-MS/MS). It is filed as in vivo, guinea pig. The procedure: Female albino Hartley guinea pigs, 250 g, from Charles River (France), housed in macrolon cages (2/cage; Innocage Rat Static-Innovive, Paris) with filter air, were maintained at 22 ± 2°C on a 12-h light cycle with standard A04C (UAR) diet and water “ad libitum.” Lgr5-GFP mice containing an EGFP-IRES-CreERT2 knock-in allele at the Lgr5 locus were obtained from the Jackson Labs (Stock 008875, C57BL/6J/RccHsd background). Atoh1-nGFP transgenic mice (C57Bl/6J background) were from Jane Johnson ([Lumpkin et al., 2003]). Wistar rats were obtained from Charles River.
γ-secretase inhibitors pharmacokinetic studies tested CPD3, CPD8 (Eli Lilly) or LY411575 (Stemcell Technologies) each formulated at 3.4 mg/ml in the following vehicles, 10% Poloxamer 338 (Sigma), 20% Poloxamer 338, 70% PEG400 (Sigma) or 1% hyaluronic acid (HA-700; Lifecore, Chaska, MN, United States) all prepared with PBS (pH 6.2). A single 70 μl injection of the formulated compound (total dose, 870 μg/kg) was delivered to the middle ear space of isoflurane-anesthetized guinea pigs by transtympanic administration. Perilymph from treated animals (perilymph volumes, >2 μl) was collected at time points up to 48 h post-administration (CILcare, Montpellier, France). Briefly, concentrations of each compound in perilymph and plasma, as well as controls prepared in artificial perilymph, were measured by LC-MS/MS on an AB Sciex, API 4000 mass spectrometer using an Onyx C18 5 μm 50^∗2.0 mm separation column (Oroxcell, Romainville, France).
To verify this, in vivo compound concentrations were measured in perilymph of guinea pigs after intratympanic delivery of GSIs into the middle ear. Initially, four vehicle formulations, with different physical properties, were tested, poloxamer 338 (POX; at 10% or 20%), hyaluronic acid (HA), or polyethylene glycol 400 (PEG). For this comparison only one GSI was prepared in each formulation (CPD3, 3.4 mg/ml) and a single dose was injected into the middle ear. Perilymph and plasma were sampled for 48 h (Figure 1D). […] Next, using only 10% POX as vehicle, inner ear adsorption was compared between CPD3, CPD8, and LY411575 by transtympanic injections (Figure 1D, inset). […] Each compound achieved levels several folds above their respective IC50s. The mean maximal perilymph concentration of CPD3 at 0.5 h post-dosing was 85,489 ng/ml (183 μM), then declined at 1 h to 12,928 ng/ml (27.7 μM), and at 6 h to 12,652 ng/ml (27.1 μM). GSIs in plasma samples were not detected (data not shown).

In series [2] the test system is hair cells in sisomicin-treated rat OC explants. Kind of series: OC explants after sisomicin ototoxic damage. It is filed as cell-based. Conditions: sisomicin 200 μM 2 h. The procedure:
(§1) To induce ototoxic damage, medium was removed from the OC cultures on the day after dissection and either 200 μM sisomicin (Sigma) in full otic medium, or 10^8 cfu/ml Streptococcus pneumoniae (described below) in ampicillin-free and FBS-free otic medium were added under the transwell membrane (lower compartment) of the cultivation system. After 2 h of exposure to the ototoxic insult, OCs were carefully washed 3 times and culture was continued for 4 days in fresh full otic medium.
Following culture, explants were washed (PBS) and fixed for 10 min at room temperature (RT) with 4% paraformaldehyde (PFA). […]
(§2) Dividing cells were labeled with, 5-ethyl-2′-deoxyuridine (EdU) and detected with Click-it Plus kit (Life Technologies). […]
Image processing was performed with the open-source image processing software FIJI, version 2.0 ([Schindelin et al., 2012]). Hair cells were quantified by counting Pou4f3 or Myo7a positive cells of the organ of Corti at three random microscopic fields for each cochlear region (base, middle, and apex) covering in total at least 1,200 μm. The number of hair cells (IHCs and OHCs) is expressed as unit per 100 μm.
FIGURE 3 GSI treatment after ototoxic damage. […] (B) Quantification of OHCs in sisomicin-treated explants (2 h; 200 μM), 4 days after ototoxic insult, and cultured in presence or absence of CPD3. […] (F) OHC quantification after bacteria-induced damage. […]

Series [3] concerns hair cells in rat OC explants exposed to S. pneumoniae. Kind of series: OC explants after S. pneumoniae-induced damage. The format is cell-based. The procedure: as §1
A clinical isolate of S. pneumoniae, serotype 3 was used as previously described ([Leib et al., 2000]; [Perny et al., 2017]). […] Bacteria were diluted to the desired optical density (OD570 nm) and the final inoculum concentration was determined by plating serial dilutions on Columbia sheep blood agar. […]
as §2
Image processing was performed with the open-source image processing software FIJI, version 2.0 ([Schindelin et al., 2012]). Hair cells were quantified by counting Pou4f3 or Myo7a positive cells of the organ of Corti at three random microscopic fields for each cochlear region (base, middle, and apex) covering in total at least 1,200 μm. The number of hair cells (IHCs and OHCs) is expressed as unit per 100 μm. […]

Where [4] appears, read: female, Hartley, guinea pig, perilymph, other: transtympanic (middle ear injection), 870 μg/kg, 10% POX vehicle, transtympanic.

The source of these data is publication PMC8414802, “Hair Cell Generation in Cochlear Culture Models Mediated by Novel γ-Secretase Inhibitors” (Frontiers in Cell and Developmental Biology, 2021).

Molecules are shown by their SMILES. Where “and” joins values, the source holds several entries; their conditions need not be identical. Equal entries are not always repeated.

`COc1ccc2c(c1)N1CCC(C)(C)C1=CC(=O)[C@H]2NC(=O)[C@H](C)NC(=O)CCC(F)(F)F` [CPD3]: the “Time at which mean maximal perilymph concentration was reached” value in series [1] (10% POX and 20% POX formulations, post-dosing) came out at 0.5 h. Moreover, the “Mean maximal perilymph concentration at 0.5 h post-dosing” value in series [1] (10% POX vehicle, transtympanic) is 85,489 ng/ml and 183 μM. The Perilymph concentrations quantifiable entry in series [1] (10% POX, sampled at 0.5, 1 and 6 h post-dosing) is “quantifiable at all time points”. Moreover, in series [1] (setting [4]), the concentration at 1 h is 12900 ng/mL and 27.7 µM; the concentration at 6 h is 12700 ng/mL and 27.1 µM. The concentration at 48 h in series [1] (female, Hartley, guinea pig, perilymph, other: transtympanic (middle ear injection), 870 μg/kg, single transtympanic dose 3.4 mg/ml, 70 μl, span over the vehicle formulations (10% POX, 20% POX, HA, PEG400)) was 485 ng/mL to 1000 ng/mL and 1 µM to 2.1 µM. Besides, in series [2] (4 days culture, apex), the “Increase of OHC numbers after sisomicin” value is “not statistically significant”. In series [2] (4 days, p = 0.057), the “Pou4f3/Sox2 double-positive cells after sisomicin” value was “observed only in the apical domain”. Further, the “OHCs after S. pneumoniae damage compared to DMSO” value in series [3] (4 days treatment after 2 h exposure) is listed as “more OHCs in all turns of the organ of Corti”. Moreover, the “Pou4f3/Sox2 double-positive cells after S. pneumoniae damage” value in series [3] (apical domain only, not statistically significant) is “increased occurrence”.
